Results on 30 molecules are retold here after patent US12577226B2, “Compounds for treating Huntington's disease” (PTC THERAPEUTICS, INC., priority 2019, dated 2026).

SMILES strings stand for the structures.

For the experiment, the system named is Endogenous Huntingtin Protein (capture with MW1 (expanded polyglutamine) or MAB2166 antibody). Kind of experiment: Endogenous Huntingtin Protein Assay (ELISA-based Meso Scale Discovery electrochemiluminescence assay). It counts as cell-based. To be noted: MSD electrochemiluminescence platform. The procedure, abridged:
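MSD electrochemiluminescence sandwich immunoassay: plates coated with 1 μg/mL MW1 or MAB2166 capture antibody, samples incubated overnight at 4 °C. Detection with rabbit monoclonal #5656S then SULFO-TAG anti-rabbit (each 0.25 μg/mL, 1 h RT).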
In general terms: In an ELISA, binding on a coated surface is turned into a signal by an enzyme label.
Take `CC1(C)CC(Oc2ccc(-c3ncc(-c4nccs4)cc3O)nn2)CC2(CC2)N1` (stereo not drawn) [Compound 79, 2-{6-[(5,5-dimethyl-4-azaspiro[2.5]octan-7-yl)oxy]pyridazin-3-yl}-5-(1,3-thiazol-2-yl)pyridin-3-ol]: the IC50 (as a rule, the midpoint of a concentration-inhibition curve) was not above 0.1 µM. The same measure for `CN[C@@H]1CCN(c2ccc(-c3ncc(-c4ncco4)cc3O)nn2)C1` [Compound 80, 2-{6-[(3R)-3-(methylamino)pyrrolidin-1-yl]pyridazin-3-yl}-5-(1,3-oxazol-2-yl)pyridin-3-ol]: 0.1 to 0.5 µM. The same measure for `COc1cc(-c2cnc(-c3ccc(OC4CC(C)(C)NC(C)(C)C4)nn3)c(O)c2)nn2cc(C)nc12` [Compound 81, 5-(8-methoxy-2-methylimidazo[1,2-b]pyridazin-6-yl)-2-{6-[(2,2,6,6-tetramethylpiperidin-4-yl)oxy]pyridazin-3-yl}pyridin-3-ol]: not above 0.1 µM; for `[2H]C([2H])([2H])n1cc(-c2cnc(-c3ccc(O[C@H]4C[C@@H](C)NC5(CC5)C4)nn3)c(O)c2)cn1` [Compound 82, 2-(6-{[(5R,7S)-5-methyl-4-azaspiro[2.5]octan-7-yl]oxy}pyridazin-3-yl)-5-[1-(^2H3)methyl-1H-pyrazol-4-yl]pyridin-3-ol]: not above 0.1 µM; for `[2H]C([2H])([2H])n1cc(-c2cnc(-c3ccc(O[C@@H]4C[C@H](C)NC5(CC5)C4)nn3)c(O)c2)cn1` [Compound 83, 2-(6-{[(5S,7R)-5-methyl-4-azaspiro[2.5]octan-7-yl]oxy}pyridazin-3-yl)-5-[1-(^2H3)methyl-1H-pyrazol-4-yl]pyridin-3-ol]: 0.1 to 0.5 µM. The same measure for `[2H]C([2H])([2H])n1cc(-c2cnc(-c3ccc(O[C@H]4C[C@H](C)NC5(CC5)C4)nn3)c(O)c2)cn1` [Compound 84, 2-(6-{[(5S,7S)-5-methyl-4-azaspiro[2.5]octan-7-yl]oxy}pyridazin-3-yl)-5-[1-(^2H3)methyl-1H-pyrazol-4-yl]pyridin-3-ol]: 0.5 to 1 µM; for `[2H]C([2H])([2H])n1cc(-c2cnc(-c3ccc(O[C@@H]4C[C@@H](C)NC5(CC5)C4)nn3)c(O)c2)cn1` [Compound 85, 2-(6-{[(5R,7R)-5-methyl-4-azaspiro[2.5]octan-7-yl]oxy}pyridazin-3-yl)-5-[1-(^2H3)methyl-1H-pyrazol-4-yl]pyridin-3-ol]: 0.5 to 1 µM.

`C[C@@H]1CN(c2ccc(-c3ncc(-c4cn[nH]c4)cc3O)nn2)C[C@H](C)N1` [Compound 86, 2-{6-[(3R,5S)-3,5-dimethylpiperazin-1-yl]pyridazin-3-yl}-5-(1H-pyrazol-4-yl)pyridin-3-ol and 2-{6-[(3S,5R)-3,5-dimethylpiperazin-1-yl]pyridazin-3-yl}-5-(1H-pyrazol-4-yl)pyridin-3-ol] displayed an IC50 of 0.1 to 0.5 µM. The same measure for `COc1cc(-c2cnc(-c3ccc(N4C[C@@H](C)N[C@@H](C)C4)nn3)c(O)c2)cc2cn(C)nc12` [Compound 87, 2-{6-[(3R,5S)-3,5-dimethylpiperazin-1-yl]pyridazin-3-yl}-5-(7-methoxy-2-methyl-2H-indazol-5-yl)pyridin-3-ol and 2-{6-[(3S,5R)-3,5-dimethylpiperazin-1-yl]pyridazin-3-yl}-5-(7-methoxy-2-methyl-2H-indazol-5-yl)pyridin-3-ol]: not above 0.1 µM. The same measure for `CC1(C)CN(c2ccc(-c3ncc(-c4cn[nH]c4)cc3O)nn2)CC(C)(C)N1` [Compound 88, 5-(1H-pyrazol-4-yl)-2-[6-(3,3,5,5-tetramethylpiperazin-1-yl)pyridazin-3-yl]pyridin-3-ol]: 0.1 to 0.5 µM; for `Cn1cc2cc(-c3cnc(-c4ccc(N5CC(C)(C)NC(C)(C)C5)nn4)c(O)c3)cc(F)c2n1` [Compound 89, 5-(7-fluoro-2-methyl-2H-indazol-5-yl)-2-[6-(3,3,5,5-tetramethylpiperazin-1-yl)pyridazin-3-yl]pyridin-3-ol]: not above 0.1 µM; for `Cc1cn2cc(-c3cnc(-c4ccc(N5C[C@@H](C)N[C@@H](C)C5)nn4)c(O)c3)ccc2n1` [Compound 92, 2-{6-[(3R,5S)-3,5-dimethylpiperazin-1-yl]pyridazin-3-yl}-5-(2-methylimidazo[1,2-a]pyridin-6-yl)pyridin-3-ol and 2-{6-[(3S,5R)-3,5-dimethylpiperazin-1-yl]pyridazin-3-yl}-5-(2-methylimidazo[1,2-a]pyridin-6-yl)pyridin-3-ol]: not above 0.1 µM. The same measure for `Cn1cc2cc(-c3cnc(-c4ccc(N5CCNCC5)nn4)c(O)c3)cc(F)c2n1` [Compound 93, 5-(7-fluoro-2-methyl-2H-indazol-5-yl)-2-[6-(piperazin-1-yl)pyridazin-3-yl]pyridin-3-ol]: not above 0.1 µM. Molecule `C[C@@H]1CN(c2ccc(-c3ncc(-c4ccc5ncnn5c4)cc3O)nn2)C[C@H](C)N1` [Compound 94, 2-{6-[(3R,5S)-3,5-dimethylpiperazin-1-yl]pyridazin-3-yl}-5-([1,2,4]triazolo[1,5-a]pyridin-6-yl)pyridin-3-ol and 2-{6-[(3S,5R)-3,5-dimethylpiperazin-1-yl]pyridazin-3-yl}-5-([1,2,4]triazolo[1,5-a]pyridin-6-yl)pyridin-3-ol] registered an IC50 of 0.5 to 1 µM. The same measure for `COc1cc(-c2cnc(-c3ccc(N4CCNC(C)C4)nn3)c(O)c2)cc2cn(C)nc12` (stereo not drawn) [Compound 95, 5-(7-methoxy-2-methyl-2H-indazol-5-yl)-2-[6-(3-methylpiperazin-1-yl)pyridazin-3-yl]pyridin-3-ol]: not above 0.1 µM; for `COc1cc(-c2cnc(-c3ccc(N4C[C@@H](C)N[C@@H](C)C4)nn3)c(O)c2)ccn1` [Compound 96, 6-{6-[(3R,5S)-3,5-dimethylpiperazin-1-yl]pyridazin-3-yl}-2′-methoxy[3,4′-bipyridin]-5-ol and 6-{6-[(3S,5R)-3,5-dimethylpiperazin-1-yl]pyridazin-3-yl}-2′-methoxy[3,4′-bipyridin]-5-ol]: 0.1 to 0.5 µM. `CC1CN(c2ccc(-c3ncc(-c4cc(F)c5nn(C)cc5c4)cc3O)nn2)CCN1` (stereo not drawn) [Compound 97, 5-(7-fluoro-2-methyl-2H-indazol-5-yl)-2-[6-(3-methylpiperazin-1-yl)pyridazin-3-yl]pyridin-3-ol] displayed an IC50 not above 0.1 µM. The same measure for `Cn1cc2cc(-c3cnc(-c4ccc(N5CCNC6(CC6)C5)nn4)c(O)c3)cc(F)c2n1` [Compound 98, 2-[6-(4,7-diazaspiro[2.5]octan-7-yl)pyridazin-3-yl]-5-(7-fluoro-2-methyl-2H-indazol-5-yl)pyridin-3-ol]: not above 0.1 µM. The same measure for `Cc1nc2ccc(-c3cnc(-c4ccc(N5C[C@@H](C)N[C@@H](C)C5)nn4)c(O)c3)cn2n1` [Compound 99, 2-{6-[(3R,5S)-3,5-dimethylpiperazin-1-yl]pyridazin-3-yl}-5-(2-methyl[1,2,4]triazolo[1,5-a]pyridin-6-yl)pyridin-3-ol and 2-{6-[(3S,5R)-3,5-dimethylpiperazin-1-yl]pyridazin-3-yl}-5-(2-methyl[1,2,4]triazolo[1,5-a]pyridin-6-yl)pyridin-3-ol]: 0.1 to 0.5 µM. The same measure for `Cn1cc2cc(-c3cnc(-c4ccc(N5CCN(C6CC6)CC5)nn4)c(O)c3)cc(F)c2n1` [Compound 100, 2-[6-(4-cyclopropylpiperazin-1-yl)pyridazin-3-yl]-5-(7-fluoro-2-methyl-2H-indazol-5-yl)pyridin-3-ol]: 0.1 to 0.5 µM; for `CN1CCN(c2ccc(-c3ncc(-c4cc(F)c5nn(C)cc5c4)cc3O)nn2)CC1` [Compound 101, 5-(7-fluoro-2-methyl-2H-indazol-5-yl)-2-[6-(4-methylpiperazin-1-yl)pyridazin-3-yl]pyridin-3-ol]: not above 0.1 µM; for `CC1(C)C[C@H](Oc2ccc(-c3ncc(-c4cn[nH]c4)cc3O)nn2)[C@H](F)C(C)(C)N1[O]` [Compound 102, [(3R,4S)-3-fluoro-4-({6-[3-hydroxy-5-(1H-pyrazol-4-yl)pyridin-2-yl]pyridazin-3-yl}oxy)-2,2,6,6-tetramethylpiperidin-1-yl]oxidanyl]: 0.5 to 1 µM.

For `C[C@H]1CN(c2ccc(-c3ncc(-c4cc(F)c5nn(C)cc5c4)cc3O)nn2)CCN1` [Compound 103, 5-(7-fluoro-2-methyl-2H-indazol-5-yl)-2-{6-[(3S)-3-methylpiperazin-1-yl]pyridazin-3-yl}pyridin-3-ol], the IC50 is not above 0.1 µM.

Molecule `C[C@@H]1CN(c2ccc(-c3ncc(-c4cc(F)c5nn(C)cc5c4)cc3O)nn2)CCN1` [Compound 104, 5-(7-fluoro-2-methyl-2H-indazol-5-yl)-2-{6-[(3R)-3-methylpiperazin-1-yl]pyridazin-3-yl}pyridin-3-ol] registered an IC50 not above 0.1 µM.

For the molecule `Cn1cc2cc(-c3cnc(-c4ccc(N5CC6CC5CN6)nn4)c(O)c3)cc(F)c2n1` (stereo not drawn) [Compound 105, 2-[6-(2,5-diazabicyclo[2.2.1]heptan-2-yl)pyridazin-3-yl]-5-(7-fluoro-2-methyl-2H-indazol-5-yl)pyridin-3-ol], the IC50 is not above 0.1 µM.

`Cc1cn2cc(-c3cnc(-c4ccc(N5CCC6(CCN6)C5)nn4)c(O)c3)ccc2n1` (stereo not drawn) [Compound 107, 2-[6-(1,6-diazaspiro[3.4]octan-6-yl)pyridazin-3-yl]-5-(2-methylimidazo[1,2-a]pyridin-6-yl)pyridin-3-ol] yielded an IC50 not above 0.1 µM. The same measure for `Cc1n[nH]cc1CNc1cnc(-c2ccc(N3CCNC(C)C3)nn2)c(O)c1` (stereo not drawn) [Compound 108, 2-[6-(3-methylpiperazin-1-yl)pyridazin-3-yl]-5-{[(3-methyl-1H-pyrazol-4-yl)methyl]amino}pyridin-3-ol]: 0.5 to 1 µM; for `CC1CN(c2ccc(-c3ncc(NCc4ccccn4)cc3O)nn2)CCN1` (stereo not drawn) [Compound 109, 2-[6-(3-methylpiperazin-1-yl)pyridazin-3-yl]-5-{[(pyridin-2-yl)methyl]amino}pyridin-3-ol]: 0.5 to 1 µM. The molecule `CC1CN(c2ccc(-c3ncc(NCc4cccnc4)cc3O)nn2)CCN1` (stereo not drawn) [Compound 110, 2-[6-(3-methylpiperazin-1-yl)pyridazin-3-yl]-5-{[(pyridin-3-yl)methyl]amino}pyridin-3-ol] had an IC50 of 0.5 to 1 µM. The same measure for `CC1CN(c2ccc(-c3ncc(NCc4ccncc4)cc3O)nn2)CCN1` (stereo not drawn) [Compound 111, 2-[6-(3-methylpiperazin-1-yl)pyridazin-3-yl]-5-{[(pyridin-4-yl)methyl]amino}pyridin-3-ol]: 0.5 to 1 µM.
